# Test results from ChEMBL document CHEMBL2396591, “Identification of potent and orally bioavailable nucleotide competing reverse transcriptase inhibitors: in vitro and in vivo optimization of a series of benzofurano[3,2-d]pyrimidin-2-one derived inhibitors” (Bioorg Med Chem Lett, 2013).
# Legend:
# [1] = Aqueous solubility of the compound in phosphate buffer at pH 2 after 24 hrs; format: physicochemical
# [2] = Octanol-phosphate buffer partition coefficient, log D of the compound at pH 7.4; format: physicochemical
# [3] = Aqueous solubility of the compound in phosphate buffer at pH 6.8 after 24 hrs; format: physicochemical
# [4] = Cmax in rat at 5 mg/kg, po; format: ADME, organism-based; design: dose 5 mg/kg, route oral; conditions: in vivo
# [5] = Oral bioavailability in rat at 5 mg/kg; format: ADME, organism-based; conditions: in vivo
# [6] = test system: Rattus norvegicus; assay: Clearance in rat at 2 mg/kg, iv; format: ADME, organism-based; design: dose 2 mg/kg, route intravenous; conditions: in vivo
Structure (SMILES),solubility at 24 h [1] [µg/mL],logD [2],solubility at 24 h [3] [µg/mL],Cmax [4] [nM],bioavailability [5] [%],CL [6] [%]
CC[C@H]1C[C@@H](n2c(=O)nc(-c3cnn(C)c3)c3oc4ccc(-c5cncn5C)cc4c32)CCO1 (relative stereo),> 920,2.3,106,,,
CNc1ccc(-c2nc(=O)n(CCC3CCC(C)O3)c3c2oc2ncc(-c4cnn(C)c4)cc23)cn1 (stereo not drawn),,3.2,,,,
CNc1ccc(-c2nc(=O)n(CC[C@@H]3CCCO3)c3c2oc2ncc(-c4cnn(C)c4)cc23)cn1,,,,140,36,37
CC[C@H]1C[C@@H](n2c(=O)nc(-c3cnn(C)c3)c3oc4ccc(-c5cnn(C)c5)nc4c32)CCO1 (relative stereo),0.2,3,0.2,460,35,18
CC[C@H]1C[C@@H](n2c(=O)nc(-c3cnn(C)c3)c3oc4ccc(-c5cn(C)cn5)nc4c32)CCO1 (relative stereo),> 480,2.7,0.6,3100,69,9.4
CC[C@H]1C[C@@H](n2c(=O)nc(-c3cnn(C)c3)c3oc4cnc(-c5cnn(C)c5)cc4c32)CCO1 (relative stereo),< 0.1,2.2,< 0.1,1600,88,18
CC[C@H]1C[C@@H](n2c(=O)nc(-c3ccc(NC)nc3)c3oc4ncc(-c5cnn(C)c5)cc4c32)CCO1 (racemic),,2.9,,1100,34,19
COc1ccc(-c2nc(=O)n(CCC3CCCO3)c3c2oc2ncc(-c4cnn(C)c4)cc23)cc1 (stereo not drawn),,3.5,,,,
CC[C@H]1C[C@@H](n2c(=O)nc(-c3cnn(C)c3)c3oc4cc(C#N)c(-c5cnn(C)c5)cc4c32)CCO1 (relative stereo),0.2,2.5,0.2,,,
CC[C@H]1C[C@@H](n2c(=O)nc(-c3cnn(C)c3)c3oc4ccc(-c5cnn(C)c5)cc4c32)CCO1 (relative stereo),< 0.1,3,< 0.1,,,
CC[C@H]1C[C@@H](n2c(=O)nc(-c3cnn(C)c3)c3oc4cnc(-c5cn(C)cn5)cc4c32)CCO1 (relative stereo),420,2.6,5.3,,,
CNc1ccc(-c2nc(=O)n(CCC3CCCCO3)c3c2oc2ncc(-c4cnn(C)c4)cc23)cn1 (stereo not drawn),,3.2,,,,
CNc1ccc(-c2nc(=O)n(C(C)CC3CCCO3)c3c2oc2ncc(-c4cnn(C)c4)cc23)cn1 (stereo not drawn),,3.3,,,,
CCC1(OC)CC(n2c(=O)nc(-c3ccc(NC)nc3)c3oc4ncc(-c5cnn(C)c5)cc4c32)C1 (stereo not drawn),,2.9,,,,
CC[C@H]1C[C@H](n2c(=O)nc(-c3ccc(NC)nc3)c3oc4ncc(-c5cnn(C)c5)cc4c32)CCO1 (racemic),,2.6,,,,
CC[C@H]1C[C@@H](n2c(=O)nc(-c3cnn(C)c3)c3oc4cc(C#N)c(-c5cnn(C)c5)nc4c32)CCO1 (relative stereo),7.9,2.7,2.1,8900,94,4.6
CC[C@H]1C[C@@H](n2c(=O)nc(-c3cnn(C)c3)c3oc4ncc(-c5cn(C)cn5)cc4c32)CCO1 (relative stereo),> 1000,1.8,2.8,,,
CNc1ccc(-c2nc(=O)n(CCC3CCOCC3)c3c2oc2ncc(-c4cnn(C)c4)cc23)cn1,,2.5,,,,
CNc1ccc(-c2nc(=O)n(CCC3CC(C)(C)CO3)c3c2oc2ncc(-c4cnn(C)c4)cc23)cn1 (stereo not drawn),,3.4,,,,
COc1cncc(-c2nc(=O)n(CCC3CCCO3)c3c2oc2ncc(-c4cnn(C)c4)cc23)c1 (stereo not drawn),,2.5,,,,
CC[C@H]1C[C@@H](n2c(=O)nc(-c3cnn(C)c3)c3oc4ccc(-c5cn(C)cn5)cc4c32)CCO1 (relative stereo),> 1000,2.6,5,1200,51,13

# More lines, now with the values ahead:
solubility at 24 h [1] [µg/mL],logD [2],solubility at 24 h [3] [µg/mL],Cmax [4] [nM],bioavailability [5] [%],CL [6] [%],Structure (SMILES)
,2.8,,,,,COc1cc(-c2nc(=O)n(CCC3CCCO3)c3c2oc2ncc(-c4cnn(C)c4)cc23)ccn1 (stereo not drawn)
,1.5,,,,,Cn1cc(-c2cnc3oc4c(-c5cnn(C)c5)nc(=O)n(CCC5CCCO5)c4c3c2)cn1 (stereo not drawn)
,1.9,,,,,CNc1ccc(-c2nc(=O)n(CCC3CCCO3)c3c2oc2ncc(-c4cnn(C)c4)cc23)nc1 (stereo not drawn)
,0.9,,,,,Cn1cc(-c2cnc3oc4c(-c5ccn(C)n5)nc(=O)n(CCC5CCCO5)c4c3c2)cn1 (stereo not drawn)
,2.2,,,,,CCn1cc(-c2nc(=O)n(CCC3CCCO3)c3c2oc2ncc(-c4cnn(C)c4)cc23)cn1 (stereo not drawn)
,1.5,,,,,Cn1cc(-c2cnc3oc4c(-c5cscn5)nc(=O)n(CCC5CCCO5)c4c3c2)cn1 (stereo not drawn)
,1.5,,,,,Cn1cc(-c2cnc3oc4c(-c5cn(C)nn5)nc(=O)n(CCC5CCCO5)c4c3c2)cn1 (stereo not drawn)
,1.7,,,,,Cn1cc(-c2cnc3oc4c(-c5cccnc5)nc(=O)n(CCC5CCCO5)c4c3c2)cn1 (stereo not drawn)
,2.8,,,,,COc1ccc(-c2nc(=O)n(CCC3CCCO3)c3c2oc2ncc(-c4cnn(C)c4)cc23)cn1 (stereo not drawn)
,2.7,,,,,CNc1ccc(-c2nc(=O)n(CCC3CCCO3)c3c2oc2ncc(-c4cnn(C)c4)cc23)cn1 (racemic)
,1.8,,,,,Cn1cc(-c2cnc3oc4c(-c5ccncc5)nc(=O)n(CCC5CCCO5)c4c3c2)cn1 (stereo not drawn)
,2,,,,,CN(C)c1cnc(-c2nc(=O)n(CCC3CCCO3)c3c2oc2ncc(-c4cnn(C)c4)cc23)cn1 (stereo not drawn)
